In patent publication US10709727B2, “Antiviral drugs” (priority 2015, dated 2020):

Test system: influenza virus (WSN strain)
Assay type: cell-based

DOCK11 #2: lentivirus-expressed shRNA against DOCK11 gene, SEQ ID NO: 2, used in Examples 3, 4, 6, 8, 12 (guide CCGGGTACTAGACACCATATCATTTCTCGAGAAATGATATGGTGTCTAGTACTTTTTG)
localization of nucleoproteins of influenza virus in the nucleus of the host cell: suppressed
